Several values for one entry are separate records, joined by “and”; a condition that tells them apart may be missing. Equal values may be shown once.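 Briefly, cells in 96-well plates were exposed to five compound concentrations for 48 h, and endpoints were estimated by linear interpolation. GI50: concentration for 50% inhibition of growth. TGI: total growth inhibition.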
What was measured:
Assay in all cases: NCI-60 cell line screen, 48 h
M14 melanoma = system: M14 melanoma
KM12 colon = system: KM12 colon
TK-10 renal = system: TK-10 renal
COLO 205 colon = system: COLO 205 colon
HCT-15 colon = system: HCT-15 colon
NCI-H460 lung = system: NCI-H460 lung
OVCAR-8 ovarian = system: OVCAR-8 ovarian
UACC-62 melanoma = system: UACC-62 melanoma
NCI-H226 lung = system: NCI-H226 lung
SW-620 colon = system: SW-620 colon

| Structure (SMILES) | TGI (M14 melanoma) | TGI (KM12 colon) [µM] | TGI (TK-10 renal) [µM] | TGI (COLO 205 colon) [µM] | TGI (HCT-15 colon) [µM] | TGI (NCI-H460 lung) [µM] | TGI (OVCAR-8 ovarian) [µM] | TGI (UACC-62 melanoma) [µM] | TGI (NCI-H226 lung) [µM] | TGI (SW-620 colon) [µM] | GI50 (M14 melanoma) |
| --- | --- | --- | --- | --- | --- | --- | --- | --- | --- | --- | --- |
| COc1ccc(NC(=S)NC(=O)c2ccc3c(c2)Sc2ccccc2O3)c([N+](=O)[O-])c1 | > 100 µM | > 100 | 36.9 | > 100 | > 100 | > 100 | > 100 | > 100 | > 100 | – | – |
| COc1cc(/C=C/C=C2\CC/C(=C\C=C\c3ccc(O)c(OC)c3)C2=O)ccc1O | > 100 µM | > 100 | > 100 | > 100 | > 100 | > 100 | > 100 | > 100 | > 100 | > 100 | – |
| Cn1c2ccccc2c(=O)c2c(O)cc3c(c21)C=CC1(CCCCC1)O3 | > 10 µM | > 10 | > 10 | > 10 | > 10 | > 10 | > 10 | > 10 | > 10 | > 10 | – |
| CN(C)CCC(=O)/C=C\c1ccccc1 | 30.4 µM | 29.2 | 32.9 | 29.3 | 30.9 | 37.5 | 37 | 31.3 | 49.3 | 35.8 | – |
| O=c1[nH]c(=O)n(C2CC(O)C(CO)O2)cc1OCc1ccccc1 (configuration not stated) | > 100 µM | > 100 | > 100 | > 100 | > 100 | > 100 | > 100 | > 100 | > 100 | – | – |
| COc1cc2c(cc1OC)-c1cc3ccccc3c(=O)n1CC2 | 80.3 µM | 53.5 | 50.7 | > 100 | – | 67.5 | > 100 | 39 | > 100 | > 100 | – |
| NS(=O)(=O)c1cccc(NC(=S)NC(=O)Nc2ccc(Cl)c(Cl)c2)c1 | 28.2 µM | 31.4 | > 100 | 35.4 | 33.6 | 44.6 | 32.5 | 26 | – | 37.9 | – |
| CC1(C)[C@H]2CC[C@@]13C(=O)N1C(=O)O[C@@H]([C@H]1Cl)C(Cl)(COCc1ccccc1)C(=O)OCCO[C@H]3C2 (some centres not stated) | > 100 µM | > 100 | – | 36.6 | > 100 | > 100 | > 100 | > 100 | – | > 100 | – |
| COc1ccc(-c2cc(-c3ccccc3)[nH]c(=S)c2C#N)cc1 | 94 µM | > 100 | > 100 | – | > 100 | 81.7 | 90.5 | 46.2 | 96.2 | > 100 | – |
| Cc1c2c(OCC3CCCCO3)nn(C)c(=O)c2c(C)n1-c1ccccc1 (configuration not stated) | 34.9 µM | 40.4 | 45.4 | 33.3 | 33.4 | 30.9 | 42.2 | 31 | 42.7 | – | – |
| C[C@H]1SC(c2ccc(Cl)cc2Cl)N(NC(=O)c2ccncc2)C1=O (some centres not stated) | 69.9 µM | > 100 | – | > 100 | > 100 | > 100 | > 100 | > 100 | 76.6 | – | – |
| COc1c(O)c2c(=O)cc(OC)c3c4c(OC)cc(=O)c5c(O)c(OC)c6c(c(c1C(C(C)O)C6C(C)O)c23)c54 (configuration not stated) | 2.34 µM | 3.43 | 4.66 | 4.22 | – | 1.18 | 2.48 | 3.54 | 5.46 | 4.33 | – |
| COc1nc(C#CC(C)(C)C)nc(OC)n1 | > 100 µM | 40 | 57.8 | > 100 | 61.5 | > 100 | 37.6 | 42 | – | 73.3 | – |
| COC(=O)C1=Nc2c(C)nn(-c3ccccc3)c2N=C(c2ccccc2)C1 | > 10 µM | > 10 | > 10 | > 10 | > 10 | – | > 10 | > 10 | – | > 10 | – |
| COc1cc2c(cc1Cc1c(F)cccc1Cl)nc(-c1c(F)cccc1Cl)n2Cc1c(F)cccc1Cl | > 100 µM | > 100 | > 100 | > 100 | > 100 | > 100 | > 100 | > 100 | > 100 | – | – |
| CCOC(=O)/C(O)=C1\C(=O)N(C)C(=O)C1c1cccc(OC)c1 (configuration not stated) | – | > 100 | – | > 100 | > 100 | > 100 | > 100 | > 100 | > 100 | > 100 | – |
| CC(=O)OC1CCC2C3CCc4c(C)ccc(OS(=O)(=O)c5ccccc5)c4C3CCC12C (configuration not stated) | – | – | > 100 | > 100 | > 100 | > 100 | – | > 100 | > 100 | > 100 | – |
| O=c1cc(-c2cc(O)c(O)c(-c3c(O)cc4oc(-c5ccc(O)c(O)c5)cc(=O)c4c3O)c2)oc2cc(O)cc(O)c12 | > 25 µM | – | > 25 | > 25 | > 25 | > 25 | > 25 | > 25 | > 25 | > 25 | – |
| N#Cc1nc(NC(=O)c2ccccc2C(=O)O)c(C#N)[nH]1 | > 100 µM | > 100 | > 100 | > 100 | – | – | > 100 | > 100 | > 100 | > 100 | – |
| COc1ccc(CC2COc3cc(O)cc(O)c3C2=O)cc1O (configuration not stated) | > 100 µM | 43.9 | > 100 | 43.8 | > 100 | > 100 | > 100 | > 100 | – | > 100 | – |
| O=c1cc(N2CCCC2)[nH]c(=O)n1-c1ccccc1 | > 100 µM | > 100 | > 100 | > 100 | > 100 | > 100 | > 100 | – | > 100 | > 100 | – |
| COCCOCCOC1=CC(=O)c2c(O)ccc(O)c2C1=O | 2.14 µM | 3.3 | 4.51 | 0.883 | – | 3.47 | – | 3.34 | 3.88 | 1.72 | – |
| CCCSc1nc(-c2ccc(OC)cc2)c(C#N)c(=O)n1C1OC(COC(C)=O)C(OC(C)=O)C(OC(C)=O)C1OC(C)=O (configuration not stated) | > 100 µM and 50.2 µM | > 100 | – | > 100 | – | > 100 | – | > 100 | – | – | > 100 µM and 23.1 µM |
| COC(=O)/C(C#N)=C(/NCCN)Nc1ccccc1 | > 100 µM | – | > 100 | > 100 | > 100 | > 100 | > 100 | – | > 100 | > 100 | – |

From PubChem BioAssay (NCI)
